US20240164369A1, “MESENCHYMAL STEM CELLS FOR USE IN INCREASING EX-VIVO ORGAN LIFE” (Amniotics AB, priority 2021, published 2024)

Columns and labels:
[1] = system: T cells among human PBMCs activated with aCD3/aCD28; assay: PBMC:MSC co-culture, T cell activation status after 24 hours (FACS)
Description: (§1) Following activation, cells were analysed for effects on cellular composition after 24 hours and for effects on cellular composition and cell proliferation using CFSE after 72 hours. In addition, supernatants collected after 24 hours of activation were analysed for cytokine levels using Luminex.
(§2) Peripheral Blood Mononuclear Cells (PBMCs) were isolated from leucocyte concentrate from three different donors (acquired from Blodcentralen, Lunds Universitetssjukhus, Lund, Sweden) through gradient centrifugation at 400×g for 40 minutes using Ficoll. Red blood cells (RBCs) were lysed using BD Pharmlyse buffer 10× diluted in milliQ water for 3 minutes at room temperature (RT). Cells were washed and the isolated PBMCs were pooled. Cell concentration was determined using a Scepter cell counter (Millipore Merck, MA. USA). Cells were diluted to 1×10^7 cells/ml in PBS. Pooled PBMCs were split into 2 different tubes. Cells in tube 1 was stained with CFSE at 5 μM for 5 minutes (dark, RT). CFSEstained cells were washed with an equal volume of FBS to stop the reaction and washed again with PBS. Cells in tube two was left in PBS. […]
(§3) Following 24 hours of incubation, cells in FACS/Luminex plates were stained with antibodies detecting CD73, CD4, CD8, CD80, CD206, CD163 and PD-1 in staining buffer (PBS supplemented with 1% BSA). […] 150 μl was analysed from each sample.

[2] = system: granulocytes and macrophages among human PBMCs activated with aCD3/aCD28; assay: PBMC:MSC co-culture, macrophage activation status after 24 hours (FACS); type: cell-based; conditions: Prednisolone 125 nM
Description: as §1, §2, §3

[3] = system: T cells among human PBMCs activated with aCD3/aCD28; assay: PBMC:MSC co-culture, T cell composition and CFSE proliferation after 72 hours
Description: as §1
(§4) Peripheral Blood Mononuclear Cells (PBMCs) were isolated from leucocyte concentrate from three different donors (acquired from Blodcentralen, Lunds Universitetssjukhus, Lund, Sweden) through gradient centrifugation at 400×g for 40 minutes using Ficoll. Red blood cells (RBCs) were lysed using BD Pharmlyse buffer 10× diluted in milliQ water for 3 minutes at room temperature (RT). Cells were washed and the isolated PBMCs were pooled. Cell concentration was determined using a Scepter cell counter (Millipore Merck, MA. USA). Cells were diluted to 1×10^7 cells/ml in PBS. Pooled PBMCs were split into 2 different tubes. Cells in tube 1 was stained with CFSE at 5 μM for 5 minutes (dark, RT). CFSEstained cells were washed with an equal volume of FBS to stop the reaction and washed again with PBS. Cells in tube two was left in PBS.
When plating controls, cells were spun down and diluted in M3 or M4 at 4*10^6 cells/ml, with a total amount of cells at 4*10^5 cells/well. 100 μl PBMCs were added per well. […] Medium was added to unstimulated control wells (700 μl/well). […]

[4] = system: granulocytes and macrophages among human PBMCs activated with aCD3/aCD28; assay: PBMC:MSC co-culture, macrophage composition and CFSE proliferation after 72 hours; type: cell-based
Description: as §1, §4
When plating controls, cells were spun down and diluted in M3 or M4 at 4*10^6 cells/ml, with a total amount of cells at 4*10^5 cells/well. 100 μl PBMCs were added per well. […] Medium was added to unstimulated control wells (700 μl/well). Cells were incubated for 24 or 72 hours at 37° ° C., 5% CO2. See also FIG. 23.
After 72 hours of incubation, CFSE stained cells were stained with CD4, CD8, CD80, CD206 and CD163 in staining buffer. Briefly, cells were transferred to V bottom plates, centrifuged at 360×g for 2 min. Cells were washed in PBS, centrifuged at 360×g for 2 min at 4° C. Supernatant was flicked off and surface markers were added. Cells were incubated at +4° C. for 20 minutes. After incubation, cells were washed 1× in PBS, centrifuged at 360×g for 2 min at 4° ° C. Cells were resuspended in PBS and acquired using the Attune Nxt flow cytometer. Compensation was performed using beads • AbC Total Compensation capture beads and negative beads for surface markers. For CFSE compensation, newly CFSE stained cells were used. Since compensation was done using both beads and cells, FSC and SSC were changed and adjusted to beads or cells. Lasers were not changed after compensation. 2.3.4 Cytokine Analysis after 24 Hours of Activation (Luminex)
Graphs were performed using Prism 8 for Mac OS X (GraphPad Software, San Diego, CA, USA). Results are presented as mean values±SEM, if not otherwise stated. Dot plots were acquired from analysis using FlowJo v10.6.1 for Mac (BD, New Jersey, USA).

[5] = system: human PBMCs activated with aCD3/aCD28; assay: cytokine analysis in co-culture supernatant after 24 hours (Luminex); type: cell-based; conditions: media 3
Description: 100 μl PBMCs were added per well. […] See also FIG. 23. Supernatant (24 hours incubation) was analysed for cytokines using the 12-[…]-12 Luminex kit. All reagents, standard and samples were prepared at room temperature and according to manufacturer's instruction. Briefly, 50 μl of standard or sample was added to wells. Microparticles were added to samples and standard and samples were incubated for 2 hours at room temperature on a horizontal orbital shaker (800 rpm). Plate was washed 3× in washing buffer using a magnetic plate. Biotin-antibody was added and incubated dark for 1 hour at room temperature on a horizontal orbital shaker (800 rpm). Plate was washed 3× in washing buffer using a magnetic plate. Streptavidin-PE was added to each well and incubated dark at room temperature on a horizontal orbital shaker (800 rpm) for 30 minutes. Plate was washed 3× in washing buffer using a magnetic plate. Microparticles were resuspended in 100 μl washing buffer, incubated for 2 minutes on a horizontal orbital shaker (800 rpm). Samples were analysed on a Bio-Rad Luminex analyzer.

## C[C@]12C=CC(=O)C=C1CC[C@@H]1[C@@H]2[C@@H](O)C[C@@]2(C)[C@H]1CC[C@]2(O)C(=O)CO [Prednisolone]
[1]; 24 hours of incubation, vs control
  composition of T helper cells (% CD4+ lymphocytes or MFI of CD4+ lymphocytes): higher levels
[1]; 24 hours, CsA 10 μg/ml, Prednisolone 125 nM
  inhibition of T cell activation: only slightly inhibits
[2]
  macrophage cell composition: did not have an effect
[3]
  effect on cytotoxic T cells (%): no effect
[3]; 72 hours of incubation
  effect on T helper cells (%): no effect
[4]
  M1 expression levels: no effect
  M1 proliferation (CFSE): No effect
  M2 expression levels: no effect
  M2 proliferation (CFSE): No effect
[5]
  HGF level in supernatant: inhibits
  IL-6 level in supernatant: inhibits
  IL-12/IL-23 p40 level in supernatant: inhibits
  TNF-a level in supernatant: inhibits
  the other analysed cytokines, levels in supernatant: No inhibitory effect
